Patent US9751847B2, “Methods and compositions related to neuroactive thiazoline compounds” (University of Utah Research Foundation, priority 2010, dated 2017)
“Also recorded” adds a separate entry of the source. Where two headings read alike, the source gives them in different places.

Assays:
[1] = biological target: DAT (Homo sapiens, UniProt Q01959); test: PDSP radioligand displacement receptor assay, DAT; type: binding; conditions: for inhibition at 10 µM: radioligand displacement, primary assay, 10 μM compound; for Ki: secondary binding assay, test compound 1 to 10,000 nM
Method: (§1) Receptor affinity assays were carried out according to methods as described at http://pdsp.med.unc.edu/ (accessed on Oct. 13, 2010).
(§2) Initial hits were obtained in radioligand displacement assays. […] Representative activity is highlighted in the table below showing in radioligand displacement activity at 10 μM of the in dicated compound. Ki was determined as indicated.

[2] = biological target: histamine H1 receptor (Homo sapiens, UniProt P35367); test: PDSP radioligand displacement receptor assay, H1; type: binding; conditions: for inhibition at 10 µM: radioligand displacement, primary assay, 10 μM compound; for Ki: secondary binding assay, test compound 1 to 10,000 nM
Method: as §1, §2

[3] = tested on: Ca2+ Channel; test: PDSP radioligand displacement receptor assay, Ca2+ channel; type: binding; conditions: for inhibition (10 μM) Ca2+ Channel: radioligand displacement, primary assay, 10 μM compound; for Ki: secondary binding assay, test compound 1 to 10,000 nM
Method: as §1, §2

[4] = biological target: kappa opioid receptor (Homo sapiens, UniProt P41145); test: PDSP radioligand displacement receptor assay, KOR; type: binding; conditions: for inhibition at 10 µM: radioligand displacement, primary assay, 10 μM compound; for Ki: secondary binding assay, test compound 1 to 10,000 nM
Method: as §1, §2

[5] = biological target: 5HT-2B receptor (Homo sapiens, UniProt P41595); test: PDSP radioligand displacement receptor assay, 5HT2B; type: binding; conditions: for inhibition at 10 µM: primary assay, 10 μM compound; for Ki: secondary binding assay
Method: as §1, §2

[6] = tested on: dorsal root ganglia (DRG) cells; test: Dorsal root ganglion (DRG) assay, Fura-2 intracellular calcium with 25 mM KCl; type: cell-based, mice; conditions: pure compound 20 μg/mL, co-applied with 25 mM KCl, mouse DRG cells
Method: For details of the isolation and culture of dorsal root ganglion neurons see Light et al. Briefly, dorsal root ganglia (DRG) cells from cervical and lumbar regions were obtained from mice and used in an assay with bacterial culture extracts and pure compounds. DRG cells were suspended in medium with additives and loaded with Fura-2 AM (Molecular Probes), a fluorescent dye used to measure intracellular calcium levels. Experiments were performed at room temperature (20 to 25° C.) in a 24-well plate format using fluorescence microscopy. Individual cells were treated as single samples, so that the individual responses of diverse neuron subtypes from the DRG could be examined. After baseline measurements, the cells were treated with 25 mM KCl solution and then washed. After return to baseline, bacterial extracts, fractions, or pure compounds were applied. This solution was then later replaced with 25 mM KCl solution. The use of KCl permitted observation of direct, modulatory, as well as inhibitory and excitatory effects of the samples assayed.
Representative data for assay results obtained with a sample of crude extract (100 μg/mL; FIG. 33), as well as compounds 1, 2, and 8 (20 μg/mL; respectively, […]). The y-axis indicates the ratio between 340 nm and 380 nm fluorescence. A higher value indicates more Ca^2+ in the cell. The x-axis indicates time. Each line indicates an individual DRG cell followed over the experimental time course. In each experiment, KCl is applied either once or twice, the compounds or extracts are incubated with cells, then the compound is co-applied with KCl.

[7] = tested on: other serotonin receptors; test: PDSP primary assay, other serotonin receptors; type: binding; conditions: 5HT-2B versus other serotonin receptors
Method: as §1, §2

[8] = test compound 1 to 10,000 nM, read-out: Ki (nM) 5HT2B

Chain of 5HT-2B receptor (P41595 whole entry): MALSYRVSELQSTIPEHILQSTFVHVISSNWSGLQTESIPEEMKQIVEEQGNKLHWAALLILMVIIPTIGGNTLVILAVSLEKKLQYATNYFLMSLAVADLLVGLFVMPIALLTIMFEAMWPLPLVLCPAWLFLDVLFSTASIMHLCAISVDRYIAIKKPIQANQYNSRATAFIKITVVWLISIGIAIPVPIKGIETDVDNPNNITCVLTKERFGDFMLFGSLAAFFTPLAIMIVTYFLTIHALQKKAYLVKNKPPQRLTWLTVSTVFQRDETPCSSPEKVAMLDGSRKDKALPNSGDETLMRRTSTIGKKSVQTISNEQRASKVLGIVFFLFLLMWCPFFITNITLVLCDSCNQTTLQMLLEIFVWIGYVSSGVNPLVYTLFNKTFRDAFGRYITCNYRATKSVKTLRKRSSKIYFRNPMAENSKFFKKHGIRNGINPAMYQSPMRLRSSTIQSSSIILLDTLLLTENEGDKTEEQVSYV
Chain of histamine H1 receptor (P35367 whole entry, species assumed): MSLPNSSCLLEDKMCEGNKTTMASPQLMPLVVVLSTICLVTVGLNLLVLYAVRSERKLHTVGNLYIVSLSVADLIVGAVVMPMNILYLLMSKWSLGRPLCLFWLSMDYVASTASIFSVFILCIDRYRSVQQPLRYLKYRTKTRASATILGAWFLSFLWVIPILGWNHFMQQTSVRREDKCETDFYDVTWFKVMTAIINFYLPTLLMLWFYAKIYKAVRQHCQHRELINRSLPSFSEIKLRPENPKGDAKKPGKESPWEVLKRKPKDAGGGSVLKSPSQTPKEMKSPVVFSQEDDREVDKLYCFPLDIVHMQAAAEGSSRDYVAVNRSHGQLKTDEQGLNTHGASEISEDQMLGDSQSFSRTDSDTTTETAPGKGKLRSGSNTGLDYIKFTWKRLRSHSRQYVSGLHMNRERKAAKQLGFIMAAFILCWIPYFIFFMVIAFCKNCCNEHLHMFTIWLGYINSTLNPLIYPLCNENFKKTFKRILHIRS
Chain of DAT (Q01959 whole entry, species assumed): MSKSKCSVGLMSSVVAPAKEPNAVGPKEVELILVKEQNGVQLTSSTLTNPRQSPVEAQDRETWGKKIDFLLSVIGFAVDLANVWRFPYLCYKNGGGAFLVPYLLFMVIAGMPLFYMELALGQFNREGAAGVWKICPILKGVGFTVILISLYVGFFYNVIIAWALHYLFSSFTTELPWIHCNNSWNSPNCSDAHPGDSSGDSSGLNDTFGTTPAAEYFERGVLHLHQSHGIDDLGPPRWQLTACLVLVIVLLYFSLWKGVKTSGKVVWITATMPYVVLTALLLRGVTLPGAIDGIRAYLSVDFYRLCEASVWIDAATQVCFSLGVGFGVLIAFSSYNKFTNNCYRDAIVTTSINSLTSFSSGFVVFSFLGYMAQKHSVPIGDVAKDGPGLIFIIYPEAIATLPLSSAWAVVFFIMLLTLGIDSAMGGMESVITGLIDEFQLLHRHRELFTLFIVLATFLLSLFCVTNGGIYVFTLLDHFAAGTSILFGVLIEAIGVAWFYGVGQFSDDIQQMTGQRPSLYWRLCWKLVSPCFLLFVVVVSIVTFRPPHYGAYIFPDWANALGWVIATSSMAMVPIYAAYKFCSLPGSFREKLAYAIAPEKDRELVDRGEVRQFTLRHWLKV
Chain of kappa opioid receptor (P41145 whole entry): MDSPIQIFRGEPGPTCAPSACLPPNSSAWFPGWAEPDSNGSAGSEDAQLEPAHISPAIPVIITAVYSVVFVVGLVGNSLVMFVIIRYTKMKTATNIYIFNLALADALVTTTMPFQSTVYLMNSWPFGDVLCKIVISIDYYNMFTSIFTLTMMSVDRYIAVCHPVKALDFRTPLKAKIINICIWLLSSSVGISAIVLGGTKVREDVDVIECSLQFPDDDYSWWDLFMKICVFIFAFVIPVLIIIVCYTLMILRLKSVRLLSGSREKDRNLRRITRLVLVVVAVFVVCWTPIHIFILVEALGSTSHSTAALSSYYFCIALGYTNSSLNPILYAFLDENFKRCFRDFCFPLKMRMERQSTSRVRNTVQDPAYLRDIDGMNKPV

NC(=O)c1csc(-c2ccccc2O)n1 [Compound 7, 2-(2-hydroxyphenyl)thiazole-4-carboxamide] was tested, and the inhibition at 10 µM [1] was 2.4%, the inhibition at 10 µM [2] was 88% and the Ki [2] was 517 ± 28 nM. The “inhibition (10 μM) Ca2+ Channel” value [3] was 29.6%, the inhibition at 10 µM [4] was 31.8% and the inhibition at 10 µM ([5]; radioligand displacement) was 84.9%. It also gave a Ki ([5]; radioligand displacement, read-out: Ki (nM) vs 5-HT2B) of 1030 ± 76 nM.
C[C@@H]1SC(c2ccccc2O)=N[C@@H]1CO [Compound 2, 2-((4R,5S)-4-(hydroxymethyl)-5-methyl-4,5-dihydrothiazol-2-yl)phenol] was tested, and the inhibition at 10 µM [1] was 6%, the inhibition at 10 µM [2] was 45.8% and the “response in DRG assay (Ca2+ influx)” value [6] was “inhibitory response; also recorded: decreased Ca^2+ influx”. The Ki [3] was 6600 nM, the “selectivity for the 5HT-2B receptor versus the other serotonin receptors” value [7] was ≥ 20 fold and the inhibition at 10 µM [4] was 60.8%. For the same compound, the Ki [4] was > 10000 nM, the inhibition at 10 µM ([5]; radioligand displacement) was 89.7% and the Ki [5, 8] was 505 nM.
With C[C@@H]1SC(c2ccccc2O)=N[C@H]1[C@@H]1SC[C@](C)(C(=O)O)N1C [Compound 9, (2S,4S)-2-((4R,5S)-2-(2-hydroxyphenyl)-5-methyl-4,5-dihydrothiazol-4-yl)-3,4-dimethylthiazolidine-4-carboxylic acid] the inhibition at 10 µM [1] was 83.8%, the Ki [1] was > 10000 nM and the inhibition at 10 µM [2] was 16.3%. For the same compound, the “inhibition (10 μM) Ca2+ Channel” value [3] was 0.1%, the inhibition at 10 µM [4] was 41.4% and the inhibition at 10 µM ([5]; radioligand displacement) was 68%. The Ki [5, 8] was 3920 nM.
NC(=O)C1CSC(c2ccccc2O)=N1 (stereo not drawn) [Compound 8, 2-(2-hydroxyphenyl)-4,5-dihydrothiazole-4-carboxamide] showed an inhibition at 10 µM [1] of 13.8%, an inhibition at 10 µM [2] of 71.6% and a Ki [2] of 678 ± 46 nM. The “response in DRG assay (Ca2+ influx)” value [6] was “excitatory response; also recorded: increased Ca^2+ influx”, the “inhibition (10 μM) Ca2+ Channel” value [3] was −3.4% and the inhibition at 10 µM [4] was 50.4%. For the same compound, the Ki [4] was 3710 nM, the inhibition at 10 µM ([5]; radioligand displacement) was 65.8% and the Ki [5, 8] was 1260 nM.
In the case of OC[C@@H]1CSC(c2ccccc2O)=N1 [Compound 1, (R)-2-(4-(hydroxymethyl)-4,5-dihydrothiazol-2-yl)phenol], the inhibition at 10 µM [1] is reported as -1.5%, the inhibition at 10 µM [2] is reported as 39% and the “response in DRG assay (Ca2+ influx)” value [6] is reported as “excitatory response; also recorded: increased Ca^2+ influx”. The “inhibition (10 μM) Ca2+ Channel” value [3] was −0.7%, the inhibition at 10 µM [4] was 57.2% and the Ki [4] was > 10000 nM. It also gave an inhibition at 10 µM ([5]; radioligand displacement) of 79.2% and a Ki [5, 8] of 1360 nM.
With C[C@@H]1SC(c2ccccc2O)=N[C@H]1[C@H]1SC[C@](C)(C(=O)O)N1C [Compound 10, (2R,4S)-2-((4R,5S)-2-(2-hydroxyphenyl)-5-methyl-4,5-dihydrothiazol-4-yl)-3,4-dimethylthiazolidine-4-carboxylic acid] the inhibition at 10 µM [1] was -0.3%, the inhibition at 10 µM [2] was -3% and the “inhibition (10 μM) Ca2+ Channel” value [3] was 110.4%. The Ki [3] was 9750 nM, the inhibition at 10 µM [4] was 31.9% and the inhibition at 10 µM ([5]; radioligand displacement) was 40.3%. It also gave a Ki [5, 8] of 4700 nM.
For Cc1sc(-c2ccccc2O)nc1C=O [Compound 5, 2-(2-hydroxyphenyl)-5-methylthiazole-4-carbaldehyde], the inhibition at 10 µM [1] was 88.3%, the Ki [1] was 5180 nM and the inhibition at 10 µM [2] was 42.5%. For the same compound, the “inhibition (10 μM) Ca2+ Channel” value [3] was −18.9%, the inhibition at 10 µM [4] was 37.1% and the inhibition at 10 µM ([5]; radioligand displacement) was 77%. It also gave a Ki [5, 8] of 1540 nM.
